Reference: patent US12162918B2, “Periostin compounds for the treatment of haematological complications” (Chemotherapeutisches Forschungsinstitut Georg-Speyer-Haus, priority 2018, dated 2024)
Entries after “also recorded” stand apart in the source; their conditions may differ.

Tests used:
periostin knockout mice = assay: Warfarin treatment of periostin knockout mice; type: in vivo
Description: 7 to 10 week old C57BL6/N (CD45.2) or SJL (CD45.1; B6.SJL-Ptprca Pepcb/BoyJ), Col1a1 2.3 kb-GFP (kind gift from D. Rowe), Nestin-GFP (Mignone et al., 2004) and periostin knockout mice (kind gift from Juerg Huelsken) were used for these experiments. NOD SCID interleukin (IL)-2 receptor γ deficient (NSG) mice were purchased from Charles River Laboratories (Sulzfeld, Germany) and bred in our facility. All animal studies were approved by the local German government (Regierungspräsidium Darmstadt) in Hessen, Germany, and by the Institutional Animal Care and Use Committee (IACUC) of Boston University.
(§1) 0.5 mg/kg/d or 0.05 mg/kg/d of warfarin, resuspended in phosphate-buffered saline was administered to mice via subcutaneously implanted osmotic minipumps (ALZET minipumps, Cupertino, CA). The osmotic minipumps were changed after 14 days (if the experiment went beyond 14 days of treatment). Sham operated (skin incision and suture) mice served as controls. Warfarin treatment continued for 10-14 days. In the xenotransplantation experiments the mice were treated with warfarin via the drinking water (or normal drinking water) at a dose of 0.72 mg/100 ml for a total of 3 days a week (Pfeilschifter et al., 2011).
5-fluorouracil was intraperitoneally injected every week at a dose of 75 mg/kg for a total of 4 doses or as a one time dose of 200 mg/kg. […]

distal femora = assay: Bone histomorphometry of distal femora; type: in vivo, mice
Description: The femora were isolated and first fixed in 4% paraformaldehyde at 4C overnight and then in 70% ethanol for an additional 5 days. Fixed bones were dehydrated in graded ethanol, then embedded in methyl methacrylate without demineralization. Undecalcified 5 μm thick longitudinal sections were obtained using a microtome (RM2255, Leica Biosystem, IL, USA). The sections were stained with Goldner Trichrome and at least two consecutive sections per specimen were examined for measurements of cellular parameters. A standard histomorphometric analysis of the femur methaphysis was performed using the Osteomeasure analysis system (Osteometrics Inc, Decatur, GA, USA). Measurements were performed 200 μm below the distal growth plate. The observer was blinded to the experimental group at the time of measurement. The cellular parameters were calculated and expressed according to the standardized nomenclature (Dempster et al., 2013).

stroma cells = assay: Focused gene expression analysis of stroma cells; type: cell-based, mice; details: warfarin- compared to vehicle-treated stroma cells
LKS and LKS SLAM cells = assay: G-CSF-mediated mobilization; type: in vivo; details: warfarin-treated mice
Protocol: In the mobilization experiments vehicle- or warfarin-treated C57/B16 mice were treated with 200 μg/kg G-CSF daily for 4 days, sacrificed on day 5 and peripheral blood analyzed for LKS and LKS SLAM cells by flow cytometry.

wildtype mice = assay: 5-fluorouracil-induced hematopoietic stress in warfarin-treated mice; type: in vivo
Protocol: as §1
5-fluorouracil was intraperitoneally injected every week at a dose of 75 mg/kg for a total of 4 doses or as a one time dose of 200 mg/kg. Recombinant mouse periostin (R&D Systems, Minneapolis, MN, cat. no. 2955-F2), produced in the Sf21 (baculovirus)-derived insect cell line, was administered intravenously at a dose of 2-4 μg per day and vitamin K was given at a dose of 15 mg/kg by oral gavage for four consecutive days.

Lin− cells = assay: Plating of warfarin-exposed Lin− cells on untreated versus warfarin-treated stroma, with or without MK-2206; type: cell-based, mice
[1] = system: Lin− hematopoietic cells on stroma cells; assay: Cobblestone-formation and coculture assay of Lin− cells on stroma cells; type: cell-based, mice
Protocol: In the co-culture and cobblestone assays 20,000 Lin− cells were plated on stroma cells, which had been grown and expanded from vehicle- or warfarin-treated mice in medium (α-MEM medium supplemented with 20% fetal bovine serum, 1% penicillin/streptomycin, 1% L-Glutamine) containing vehicle or warfarin (2 μM). Conditioned medium was harvested from stroma from 5 mice grown in the above medium containing vehicle or warfarin for 7 days. Consequently, 100,000 Lin− cells were grown for 2-3 days in the conditioned medium and analyzed for cell counts by flow cytometry. Where indicated, the conditioned medium was concentrated using Microsep Advance Centrifugal Devices 30K Omega (Pall Life Sciences, Portsmouth, UK).
For all coculture assays hematopoietic and stroma cells were derived from the same mouse strain (C57/B16). Stroma cells were used after a maximum of two passages and when they were 70-80% confluent. Stroma cells were derived by crushing bones from mice, plating them in α-MEM medium containing 20% fetal calf serum, penicillin/strptomycin and by removing non-adherent hematopoietic cells the following day, as described (Mukherjee et al., 2008).

periostin = assay: Anti-Gla coimmunoprecipitation of conditioned medium from stroma cells; type: cell-based, mice; details: warfarin-treated stroma cells, anti-gla antibody
[2] = system: bone marrow Lin− and LKS cells; assay: Apoptosis, cell cycle, pAKT and macrophages in bone marrow of warfarin-treated mice; type: in vivo
Protocol: as §1
For cell cycle analysis cells were permeabilized and fixed with the cytoperm/cytofix kit (BD Biosciences, San Jose, CA), followed by staining with an antibody to Ki67-PE (Biolegend, San Diego, CA) overnight at 4 C. Consequently, cells were washed and resuspended in PBS with DAPI (1 ng/ml). For detection of apoptosis cells were first stained for surface markers, washed with Annexin V buffer (Life Technologies, Darmstadt, Germany), stained with Annexin V-PE (Life Technologies, Darmstadt, Germany), washed with Annexin V binding buffer, resuspended in PBS with DAPI and analyzed.
The PE-labelled anti-pAKT antibody (Cell signaling, #5315, Danvers, MA) was used for intracellular flow cytometry after fixation and permeabilization of the cells.

CC(=O)CC(c1ccccc1)c1c(O)c2ccccc2oc1=O (stereo not drawn) [warfarin]
leukocyte counts or survival in periostin knockout mice after 5-fluorouracil (periostin knockout mice; repetitive doses of 75 mg/kg 5-fluorouracil): did not lead to lower leukocyte counts or decreased survival | total leukocytes or monocytes in periostin knockout mice (periostin knockout mice; vs control periostin knockout mice): did not lead to a decrease | ratio of bone volume/tissue volume (BV/TV) (distal femora; P<0.001): decreased | number of osteoblasts (N.Ob/B.Pm) (distal femora; P=0.0001): significantly increased | osteoblast surface (Ob.S/BS) (distal femora; P=0.0008): significantly increased | osteoclast surface (Oc.S/BS) (distal femora; P=0.01): significantly increased | osteoid volume (OV/BV) (distal femora; P=0.046): significantly increased | cancellous bone mass (distal femora; distal femora, warfarin-treated vs control mice): dramatic reduction; also recorded: significant reduction | osteoclast differentiation or number (N.Oc/B.Pm) (distal femora; mouse, in vivo): absence of changes | trabecular number and thickness (distal femora; mouse, in vivo): reduced | trabecular separation (distal femora; mouse, in vivo): increased | expression of C-X-C motif chemokine 12 (CxCl12) (stroma cells): trend towards increased expression | expression of osteopontin, Runx 2, Ccl3, Angpt1, Igf1, Notch1 and Wnt7b (stroma cells): significant decreases | expression of stem cell factor (SCF; Kitl) (stroma cells): unchanged | G-CSF-mediated mobilization of LKS SLAM cells into peripheral blood (LKS and LKS SLAM cells; P=0.026): impaired | G-CSF-mediated mobilization of LKS cells into peripheral blood (LKS and LKS SLAM cells; P=0.042): impaired | leukocyte counts after 5-fluorouracil (wildtype mice; 7 days after one-time dose of 200 mg/kg 5-fluorouracil, P=0.03): lower | survival (wildtype mice; higher dose (0.5 mg/kg), 75 mg/kg 5-fluorouracil days 0, 7, 14, 21, P=0.0004 Log-rank): similarly shortened | survival (wildtype mice; lower dose (0.05 mg/kg), 75 mg/kg 5-fluorouracil days 0, 7, 14, 21, P=0.02 Log-rank): similarly shortened | number of pAKT+ Lin− cells (Lin− cells; previously warfarin-exposed Lin− cells on untreated stroma, P=0.02): increased | number of hematopoietic cells (Lin− cells; warfarin-treated Lin− cells on untreated compared to warfarin-treated stroma, P=0.009): increased number | percentage of Lin− cells in the S/G2/M phases (Lin− cells; warfarin-treated Lin− cells on untreated compared to warfarin-treated stroma, P=0.02): increase | annexin V+ dead hematopoietic cells in coculture with stroma cells ([1]; in the presence of warfarin vs vehicle, P=0.04): modest increase | number of cobblestone-forming areas ([1]; untreated Lin− cells on previously warfarin-treated stroma, P=0.03): significantly decreased | γ-carboxylated periostin in conditioned medium (periostin): no γ-carboxylated periostin could be detected | annexin V+ DAPI+ dead LKS cells in bone marrow ([2]; after 6 weeks, P=0.03): modest increase | annexin V+ DAPI+ dead Lin− cells in bone marrow ([2]; after two weeks, P=0.038): modest increase | macrophages in the bone marrow of primary mice ([2]; warfarin vs controls): not reduced | percentage of LKS cells in the Go phase of the cell cycle ([2]; warfarin vs vehicle, P=0.005): significantly increased | pAKT+ Lin− cells in the bone marrow ([2]; warfarin-treated vs control mice, P=0.04): significant reduction
